According to patent US20160222014A1, “COMPOUNDS FOR REGULATING FAK AND/OR SRC PATHWAYS” (ASANA BIOSCIENCES, LLC, priority 2013, published 2016):

Target: T1, recombinant human FAK1 (Homo sapiens, UniProt Q05397)
T1 construct: fused on or other part: N-terminal 6xHis tag
Assay: FAK1 HTRF assay
Assay type: biochemical
Protocol: Active FAK1 was prepared for use in the Homogeneous Time-Resolved Fluorescence (HTRF) assay. Briefly, N-terminal 6 His tagged recombinant human FAK1, from residue 692-end (GenBank accession no. L13616) was expressed by Bacculovirus in sf9 cells. […] A 1.6 mg/mL (45 μM) stock was used in the HTRF assay at a final concentration of 10 nM.
Gastrin precursor (tyr87) biotinylated peptide which contains the residues surrounding tyrosine 87 (EEAY*GWM) of gastrin precursor was obtained (Cell Signaling Tech, Item no. 1310, Lot 7). The peptide was provided at a stock concentration of 6 μM, and used a final concentration of 0.5 μM in the HTRF assay.
10 mM stock in 100 μL Enzyme assay buffer pH7.4 was prepared freshly and used at a final concentration of 10 μM in the assay.
Powders were dissolved in 100% DMSO to a final stock concentration of 10 mM. The volume needed (in μL) to add for 10 mM=mg powder is 10^5/MW of compound. The final compound concentration in the assay plate started at 10 μM.
Pfizer FAK inhibitor PF-562271 (N-methyl-N-(3-(((2-((2-oxoindolin-5-yl)amino)-5-(trifluoromethyl)pyrimidin-4-yl)amino)methyl)pyridin-2-yl)methanesulfonamide) was prepared as per the reported procedure from US Patent Publication No. 2005/256145A1.
Streptavidin-Allophycocyanin was obtained (Prozyme, Cat. No. PJ25S. SA-APC was provided at a stock concentration of 2.06 mg/mL, where APC concentration was 11.6 μM and the streptavidin concentration was 15.5 μM. SA-APC was used at a final concentration of 12 nM in the assay (based on streptavidin concentration).
This reagent was obtained from Perkin ElmerAD0068. Europium-W1024-PT-66 Anti Phospho Tyrosine Ab is a monoclonal IgG1 that recognizes phospho tyrosine peptide. 100 μg/mL stock was used at a final concentration of 0.1 nM in the assay.
• 1. The compound dilutions were made by TECAN liquid handler as per the scheme in FIG. 1. • 2. 16 μL of diluted compound was added to each well of the assay plate using TECAN liquid handler. • 3. 20 μL of substrate mix (biotinylated gastrin precursor) was added into each well of the assay plate manually. • 4. 10 μL of enzyme mix (FAK1) was added to each well except mins. • 5. The plate was incubated at rt for 45 min with shaking. • 6. The HTRF mix was prepared and 75 μL was added to the HTRF plate. • 7. After the incubation was over, 10 μL of the mixture was transferred to the HTRF assay plate and incubated for 45 min at rt with shaking. • 8. The readings were taken in Pherastar in HTRF mode (ext 337 nm, em 665 & 620 nm) • 9. The results were analyzed using Graphpad Prism® software after calculation the z factor signal window and % inhibition. • 10. The IC50 was calculated.

T1 sequence (Q05397 422-680 limits assumed): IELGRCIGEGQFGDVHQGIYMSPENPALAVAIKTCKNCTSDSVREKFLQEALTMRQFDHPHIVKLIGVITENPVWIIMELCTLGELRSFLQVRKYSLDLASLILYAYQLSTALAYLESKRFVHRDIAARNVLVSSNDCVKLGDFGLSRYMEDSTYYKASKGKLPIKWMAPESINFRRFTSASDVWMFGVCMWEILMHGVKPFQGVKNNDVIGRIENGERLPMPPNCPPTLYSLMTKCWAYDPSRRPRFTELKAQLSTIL

| Structure (SMILES) | IC50 |
| --- | --- |
| CN1CCC(Oc2ccc(Nc3ncc4ccn(Cc5ccccc5N(C)S(C)(=O)=O)c4n3)cc2)CC1 [Example 531] | < 20 nM |
| CN(c1ccccc1Cn1ccc2cnc(Nc3ccc(N4CCC(CO)CC4)cc3)nc21)S(C)(=O)=O [Example 566] | < 20 nM |
| CN(C)C1CCN(c2ccc(Nc3ncc4ccn(Cc5ccccc5N(C)S(C)(=O)=O)c4n3)cc2)C1 (stereo not shown) [Example 571] | < 20 nM |
| CN(c1ccccc1Cn1ccc2cnc(Nc3ccc(OCCN4CCNCC4)cc3)nc21)S(C)(=O)=O [Example 572] | < 20 nM |
| CN(C)C1CN(c2ccc(Nc3ncc4ccn(Cc5ccccc5N(C)S(C)(=O)=O)c4n3)cc2)C1 [Example 588] | < 20 nM |
| CN(C)C1CCN(c2ccc(Nc3ncc4ccn(Cc5ccccc5N(C)S(C)(=O)=O)c4n3)cc2F)C1 (stereo not shown) [Example 590] | < 20 nM |
| CN(c1ccccc1Cn1ccc2cnc(Nc3ccc(N4CCC(C)(O)CC4)cc3)nc21)S(C)(=O)=O [Example 638] | < 20 nM |
| C[C@H]1CN(C(=O)c2ccc(Nc3ncc4ccn(Cc5cccnc5N(C)S(C)(=O)=O)c4n3)cc2)CCN1 [Example 682] | > 1000 nM |
| CN1CCC(NC(=O)c2ccc(Nc3ncc4c(n3)N(S(=O)(=O)c3cccc5cccnc35)CC4(C)C)cc2)CC1 [Example 702] | < 20 nM |
| COc1ccc(N(C)S(C)(=O)=O)c(Cn2ccc3cnc(Nc4ccc(N5CCC(N(C)C)CC5)c(OC)c4)nc32)c1 [Example 703] | < 20 nM |
| COc1ccc(N(C)S(C)(=O)=O)c(Cn2ccc3cnc(Nc4ccc(N5CCC(N(C)C)CC5)c(C)c4)nc32)c1 [Example 705] | < 20 nM |
| C[C@@H]1CN(c2ccc(Nc3ncc4ccn(Cc5ccccc5N(C)S(C)(=O)=O)c4n3)cc2C2CC2)CCN1 [Example 710] | < 20 nM |
| Cc1ccc(N(C)S(C)(=O)=O)c(Cn2ccc3cnc(Nc4ccc(N5CCC(N(C)C)CC5)cc4)nc32)c1 [Example 761] | < 20 nM |
| Cc1cn(S(=O)(=O)c2cccc3cccnc23)c2nc(Nc3ccc(N4CCNCC4)cc3)ncc12 [Example 769] | < 20 nM |
| Cc1cc(Nc2ncc3ccn(Cc4cc(F)ccc4N(C)S(C)(=O)=O)c3n2)ccc1C1CCNCC1 [Example 782] | < 20 nM |
| Cc1ccc(N(C)S(C)(=O)=O)c(Cn2ccc3cnc(Nc4ccc(C5CCNCC5)cc4)nc32)c1 [Example 789] | < 20 nM |
| CN(c1ccc(F)cc1Cn1ccc2cnc(Nc3ccc4c(c3)CC(=O)N4)nc21)S(C)(=O)=O [Example 792] | < 20 nM |
| Cc1cc(Nc2ncc3ccn(Cc4cc(F)ccc4N(C)S(C)(=O)=O)c3n2)ccc1N1CCC(N(C)C)CC1 [Example 794] | < 20 nM |
| CN(C)C1CCC(c2ccc(Nc3ncc4ccn(Cc5cc(F)ccc5N(C)S(C)(=O)=O)c4n3)cc2)CC1 (stereo not shown) [Example 806] | < 20 nM |
| Cc1ccc(N(C)S(C)(=O)=O)c(Cn2ccc3cnc(Nc4ccc(C5CCNCC5)c(C)c4)nc32)c1 [Example 807] | < 20 nM |
| Cc1ccc(N(C)S(C)(=O)=O)c(Cn2ccc3cnc(Nc4ccc(N5CCN[C@@H](C)C5)c(F)c4)nc32)c1 [Example 809] | < 20 nM |
| Cc1ccc(N(C)S(C)(=O)=O)c(Cn2ccc3cnc(Nc4ccc(C5CCC(N(C)C)CC5)cc4)nc32)c1 (stereo not shown) [Example 980] | < 20 nM |
| Cc1cnc(N(C)S(C)(=O)=O)c(Cn2ccc3cnc(Nc4ccc(N5CCC(N(C)C)CC5)c(C)c4)nc32)c1 [Example 981] | < 20 nM |
| CNC(=O)c1ccc(Nc2ncc3ccn(Cc4cc(F)ccc4N(C)S(C)(=O)=O)c3n2)cc1 [Example 983] | < 20 nM |
| CNC(=O)c1ccc(Nc2ncc3ccn(Cc4cc(C)ccc4N(C)S(C)(=O)=O)c3n2)cc1 [Example 986] | < 20 nM |

Further lines, results first:

| IC50 | Structure (SMILES) |
| --- | --- |
| < 20 nM | COc1ccc(N(C)S(C)(=O)=O)c(Cn2ccc3cnc(Nc4ccc(N5CCNCC5)cc4)nc32)c1 [Example 661] |
| < 20 nM | COc1ccc(N(C)S(C)(=O)=O)c(Cn2ccc3cnc(Nc4ccc(N5CCNCC5)c(F)c4)nc32)c1 [Example 700] |
| < 20 nM | CCC1CN(c2ccc(Nc3ncc4ccn(Cc5cc(OC)ccc5N(C)S(C)(=O)=O)c4n3)cc2)CCN1 (stereo not shown) [Example 704] |
| < 20 nM | CNC1CCN(c2ccc(Nc3ncc4ccn(Cc5cc(OC)ccc5N(C)S(C)(=O)=O)c4n3)cc2)CC1 [Example 709] |
| < 20 nM | CN(c1ccc(C#N)cc1Cn1ccc2cnc(Nc3ccc(N4CCNCC4)cc3)nc21)S(C)(=O)=O [Example 715] |
| < 20 nM | CN(c1ccc(OC(F)F)cc1Cn1ccc2cnc(Nc3ccc(N4CCNCC4)cc3)nc21)S(C)(=O)=O [Example 717] |
| < 20 nM | Cc1ccc(N(C)S(C)(=O)=O)c(Cn2ccc3cnc(Nc4ccc(N5CCNCC5)cc4)nc32)c1 [Example 759, N-methyl-N-(4-methyl-2-((2-((4-(piperazin-1-yl)phenyl)amino)-7H-pyrrolo[2,3-d]pyrimidin-7-yl)methyl)phenyl)methanesulfonamide] |
| < 20 nM | Cc1ccc(N(C)S(C)(=O)=O)c(Cn2ccc3cnc(Nc4ccc(N5CCN[C@@H](C)C5)cc4)nc32)c1 [Example 766] |
| < 20 nM | CN(C)C1CCN(c2ccc(Nc3ncc4ccn(Cc5cc(F)ccc5N(C)S(C)(=O)=O)c4n3)cc2)CC1 [Example 778] |
| < 20 nM | C[C@@H]1CN(c2ccc(Nc3ncc4ccn(Cc5cc(F)ccc5N(C)S(C)(=O)=O)c4n3)cc2)CCN1 [Example 793] |
| < 20 nM | CN(C)C1CCN(c2ccc(Nc3ncc4ccn(Cc5cc(Cl)ccc5N(C)S(C)(=O)=O)c4n3)cc2)CC1 [Example 796] |
| < 20 nM | CN(c1ccc(F)cc1Cn1ccc2cnc(Nc3ccc(N4CCC(N)CC4)cc3)nc21)S(C)(=O)=O [Example 799] |
| < 20 nM | CN(c1ccc(F)cc1Cn1ccc2cnc(Nc3ccc(N4CCCC(N)C4)cc3)nc21)S(C)(=O)=O (stereo not shown) [Example 800] |
| < 20 nM | COc1cc(Nc2ncc3ccn(Cc4cc(F)ccc4N(C)S(C)(=O)=O)c3n2)ccc1N1CCNCC1 [Example 801] |
| < 20 nM | CN(c1ccc(F)cc1Cn1ccc2cnc(Nc3ccc(N4CCNCC4)c(F)c3)nc21)S(C)(=O)=O [Example 802] |
| < 20 nM | CN(c1ccc(F)cc1Cn1ccc2cnc(Nc3ccc(N4CCNCC4)cc3)nc21)S(C)(=O)=O [Example 805] |
| < 20 nM | C[C@H]1CN(c2ccc(Nc3ncc4ccn(Cc5cc(C(F)(F)F)ccc5N(C)S(C)(=O)=O)c4n3)cc2)CCN1 [Example 810] |
| < 20 nM | CN(c1ccc(C(F)(F)F)cc1Cn1ccc2cnc(Nc3ccc(N4CCNCC4)cc3)nc21)S(C)(=O)=O [Example 892] |
| < 20 nM | C[C@H]1CN(c2ccc(Nc3ncc4ccn(Cc5cc(Cl)ccc5N(C)S(C)(=O)=O)c4n3)cc2)CCN1 [Example 899] |
| < 20 nM | CN(c1ccc(F)cc1Cn1ccc2cnc(Nc3ccc(N4CCN(CCO)CC4)cc3)nc21)S(C)(=O)=O [Example 920] |
| < 20 nM | Cc1ccc(N(C)S(C)(=O)=O)c(Cn2ccc3cnc(Nc4ccc(N5CCNCC5)c(F)c4)nc32)c1 [Example 941] |
| < 20 nM | COc1cc(Nc2ncc3ccn(Cc4cc(C)ccc4N(C)S(C)(=O)=O)c3n2)ccc1N1CCNCC1 [Example 942] |
| < 20 nM | Cc1ccc(N(C)S(C)(=O)=O)c(Cn2ccc3cnc(Nc4ccc(N5CCC(N)CC5)cc4)nc32)c1 [Example 977] |
| < 20 nM | Cc1ccc(N(C)S(C)(=O)=O)c(Cn2ccc3cnc(Nc4ccc(N5CCCC(N)C5)cc4)nc32)c1 (stereo not shown) [Example 978] |
